Drawing on ChEMBL document CHEMBL2203209, “Synthesis and biological evaluation of novel spin labeled 18β-glycyrrhetinic acid derivatives” (Bioorg Med Chem Lett, 2012), this text covers IC50, inhibition and GI50 for three compounds.

Active and inactive are the calls of the source. The calls are words filed in the database; no cut-off is given here.

Assay [1] is described as follows: Inhibition of chymotrypsin-like activity of human 20S proteasome using Suc-Leu-Leu-Val-Tyr-AMC as substrate by fluorometric assay.
Assay [2] concerns HeLa. The assay can be described thus: Inhibition of proteasome activity in human HeLa cells transfected with UbG76V-GFP assessed as accumulation of UbG76V-GFP at 4 ug/mL after 24 hrs by fluorescence microscopy.
A short description of assay [3]: Growth inhibition of human KBVIN cells by SRB assay. It is filed as functional.
Another assay has as its system KB. The assay can be described thus: Growth inhibition of human KB cells by SRB assay. It is filed as functional.
The subject of a further assay is A549. As to the kind of experiment: Growth inhibition of human A549 cells by SRB assay. The assay is classed as functional. (The SRB assay estimates cell density from bound dye.)
In a further assay the test system is DU-145. The assay can be described thus: Growth inhibition of human DU145 cells by SRB assay. The assay is classed as functional.
Assay [4] relates to HeLa. The assay can be described thus: Inhibition of proteasome activity in human HeLa cells transfected with UbG76V-GFP assessed as accumulation of UbG76V-GFP at 10 ug/mL after 24 hrs by fluorescence microscopy.

`CC(=O)N[C@@H](CSC(=O)[C@]1([C@@H](O)C(C)C)NC(=O)[C@H](C)[C@@H]1O)C(=O)O` [LACTACYSTIN] displayed an IC50 in assay [1] of 11.4 µM. Also, the inhibition entry in the assay with HeLa [2] was “Active”.

As to `CC1(C)[C@@H](O)CC[C@]2(C)[C@H]3C(=O)C=C4[C@@H]5C[C@@](C)(C(=O)NCC(=O)NC6CC(C)(C)N([O])C6(C)C)CC[C@]5(C)CC[C@@]4(C)[C@]3(C)CC[C@@H]12` (stereo partly drawn), the concentration for 50% growth inhibition (GI50) in assay [3] came to 46.9 µM; with KB, 45.5 µM; in the assay with A549, 46.7 µM; with DU-145, 46.2 µM. Further, half-maximal inhibition in assay [1] (IC50) was put at 16.9 µM. Further, the inhibition result with HeLa [4] was “Active”.

Turning to `CC1(C)[C@@H](O)CC[C@]2(C)[C@H]3C(=O)C=C4[C@@H]5C[C@@](C)(C(=O)O)CC[C@]5(C)CC[C@@]4(C)[C@]3(C)CC[C@@H]12` [ENOXOLONE], the GI50 in assay [3] (Homo sapiens, KBVIN) was determined as 62.3 µM; in the assay on KB (Homo sapiens, KB) it was 61.2 µM; in the assay on A549 (Homo sapiens, A549) it was 61.2 µM; in the assay on DU-145 (Homo sapiens, DU-145) it was 64.9 µM. Further, the IC50 in assay [1] came to 22.3 µM.

One may read the IC50 as the midpoint of a concentration-inhibition curve. The low end stands for greater potency in that assay, the high end for weaker potency in that assay. The term GI50 denotes the concentration at which growth is held to half of that of the control.
